Measured values reported in paper PMC6576746, “Rational discovery of dual-indication multi-target PDE/Kinase inhibitor for precision anti-cancer therapy using structural systems pharmacology” (PLoS Computational Biology, 2019).

How the values were obtained:
Assay in all cases: biochemical
Design in all cases: DiscoverX KinomeScan competition binding assay across human kinases; per cent of control at 10 and 100 uM
TAOK2 = TAOK2 (Homo sapiens, UniProt Q9UL54); conditions: competition binding, % of control; read-out: Percent Control (100 uM Levosimendan)
Method in brief: (§1)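 KinomeScan competition binding was run across a human kinase panel at 10 μM and 100 μM levosimendan. Results are %control = (test − positive control)/(negative control − positive control) × 100.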

MARK3 = MARK3 (Homo sapiens, UniProt P27448); conditions: competition binding, % of control; read-out: Percent Control (100 uM Levosimendan)
Method in brief: as §1

WEE2 = WEE2 (Homo sapiens, UniProt P0C1S8); conditions: competition binding, % of control; read-out: Percent Control (100 uM Levosimendan)
Method in brief: as §1

PLK2 = PLK2 (Homo sapiens, UniProt Q9NYY3); conditions: competition binding, % of control; read-out: Percent Control (100 uM Levosimendan)
Sequence of PLK2 (Q9NYY3 whole entry): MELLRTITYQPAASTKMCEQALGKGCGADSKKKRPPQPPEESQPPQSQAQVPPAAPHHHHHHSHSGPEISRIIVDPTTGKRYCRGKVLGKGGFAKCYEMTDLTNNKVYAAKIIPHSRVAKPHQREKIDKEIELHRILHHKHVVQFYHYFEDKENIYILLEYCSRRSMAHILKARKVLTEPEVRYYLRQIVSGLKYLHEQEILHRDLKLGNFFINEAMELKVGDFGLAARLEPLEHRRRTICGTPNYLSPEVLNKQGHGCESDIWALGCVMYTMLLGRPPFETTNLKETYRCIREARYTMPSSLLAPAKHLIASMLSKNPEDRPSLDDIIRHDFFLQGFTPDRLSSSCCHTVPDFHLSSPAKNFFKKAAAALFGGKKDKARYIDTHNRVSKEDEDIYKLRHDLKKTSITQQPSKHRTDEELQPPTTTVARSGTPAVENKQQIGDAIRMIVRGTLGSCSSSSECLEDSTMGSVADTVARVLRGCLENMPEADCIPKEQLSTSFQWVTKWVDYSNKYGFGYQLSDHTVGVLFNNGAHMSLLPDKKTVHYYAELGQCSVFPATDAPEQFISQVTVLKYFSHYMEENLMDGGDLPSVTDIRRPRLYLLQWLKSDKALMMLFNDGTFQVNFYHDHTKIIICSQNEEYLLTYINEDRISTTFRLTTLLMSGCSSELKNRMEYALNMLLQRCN
Method in brief: as §1

FGFR1 = FGFR1 (Homo sapiens, UniProt P11362); conditions: competition binding, % of control
Sequence of FGFR1 (P11362 whole entry): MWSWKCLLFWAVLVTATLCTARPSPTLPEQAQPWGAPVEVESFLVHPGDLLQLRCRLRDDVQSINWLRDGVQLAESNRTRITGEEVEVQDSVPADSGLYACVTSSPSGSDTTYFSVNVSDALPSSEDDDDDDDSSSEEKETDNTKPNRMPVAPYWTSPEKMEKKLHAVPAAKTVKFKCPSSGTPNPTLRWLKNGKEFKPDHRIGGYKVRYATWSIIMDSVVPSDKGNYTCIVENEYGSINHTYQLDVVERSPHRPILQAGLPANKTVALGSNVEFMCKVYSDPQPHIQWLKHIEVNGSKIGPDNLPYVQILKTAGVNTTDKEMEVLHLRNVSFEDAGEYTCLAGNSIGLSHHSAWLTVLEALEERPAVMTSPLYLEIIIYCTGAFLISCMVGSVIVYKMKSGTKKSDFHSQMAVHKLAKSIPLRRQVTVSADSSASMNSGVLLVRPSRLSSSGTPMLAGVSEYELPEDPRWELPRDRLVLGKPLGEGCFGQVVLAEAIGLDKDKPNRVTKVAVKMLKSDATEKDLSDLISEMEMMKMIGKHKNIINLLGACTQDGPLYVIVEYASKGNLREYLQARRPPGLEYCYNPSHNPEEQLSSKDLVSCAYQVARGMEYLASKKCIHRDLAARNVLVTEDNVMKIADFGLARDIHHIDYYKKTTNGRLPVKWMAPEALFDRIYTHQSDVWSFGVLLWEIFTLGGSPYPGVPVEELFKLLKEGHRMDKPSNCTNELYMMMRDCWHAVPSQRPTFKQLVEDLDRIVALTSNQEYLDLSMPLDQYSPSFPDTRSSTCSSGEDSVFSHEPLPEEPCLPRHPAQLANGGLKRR
Method in brief: as §1

[1] = molecular target: T1, TYK2(JH2domain-pseudokinase) (Homo sapiens, UniProt P29597); conditions: competition binding, % of control
T1 construct: JH2domain-pseudokinase
T1 sequence (P29597 whole entry): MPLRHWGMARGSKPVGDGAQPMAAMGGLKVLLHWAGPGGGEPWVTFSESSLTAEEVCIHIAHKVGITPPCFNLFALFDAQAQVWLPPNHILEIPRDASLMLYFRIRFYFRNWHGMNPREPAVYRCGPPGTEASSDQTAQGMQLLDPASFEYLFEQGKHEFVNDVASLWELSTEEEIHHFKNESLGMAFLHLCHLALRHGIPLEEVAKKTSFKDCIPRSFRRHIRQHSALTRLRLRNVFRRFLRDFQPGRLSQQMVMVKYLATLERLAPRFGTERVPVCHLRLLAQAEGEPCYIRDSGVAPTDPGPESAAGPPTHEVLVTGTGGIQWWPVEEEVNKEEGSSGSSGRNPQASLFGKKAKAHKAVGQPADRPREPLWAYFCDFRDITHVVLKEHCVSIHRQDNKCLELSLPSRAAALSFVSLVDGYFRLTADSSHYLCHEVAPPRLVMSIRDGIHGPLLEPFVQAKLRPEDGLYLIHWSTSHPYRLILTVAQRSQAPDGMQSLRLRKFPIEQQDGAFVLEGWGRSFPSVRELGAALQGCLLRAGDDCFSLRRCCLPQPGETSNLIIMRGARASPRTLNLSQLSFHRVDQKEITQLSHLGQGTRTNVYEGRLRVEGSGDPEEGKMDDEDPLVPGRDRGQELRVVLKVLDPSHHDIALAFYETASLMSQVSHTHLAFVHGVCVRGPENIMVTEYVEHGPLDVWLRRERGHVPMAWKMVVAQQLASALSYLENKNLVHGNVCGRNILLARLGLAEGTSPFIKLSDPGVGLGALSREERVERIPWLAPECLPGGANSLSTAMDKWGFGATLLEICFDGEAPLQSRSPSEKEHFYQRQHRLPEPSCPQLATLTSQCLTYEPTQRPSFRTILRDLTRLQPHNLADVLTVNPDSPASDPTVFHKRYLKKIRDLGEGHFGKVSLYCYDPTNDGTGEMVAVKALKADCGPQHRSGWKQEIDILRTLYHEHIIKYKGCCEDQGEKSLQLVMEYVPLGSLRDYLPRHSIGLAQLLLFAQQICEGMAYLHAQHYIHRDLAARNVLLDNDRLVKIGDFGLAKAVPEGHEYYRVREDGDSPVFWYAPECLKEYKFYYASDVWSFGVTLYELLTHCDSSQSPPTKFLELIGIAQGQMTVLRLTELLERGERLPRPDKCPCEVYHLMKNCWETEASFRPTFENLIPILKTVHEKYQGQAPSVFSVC
Method in brief: as §1

MEK4 = molecular target: T2, MEK4 (Homo sapiens, UniProt P45985); conditions: competition binding, % of control; read-out: Percent Control (100 uM Levosimendan)
T2 construct: gene MAP2K4
Method in brief: as §1

DYRK1B = DYRK1B (Homo sapiens, UniProt Q9Y463); conditions: competition binding, % of control; read-out: Percent Control (100 uM Levosimendan)
Method in brief: as §1

IRAK4 = IRAK4 (Homo sapiens, UniProt Q9NWZ3); conditions: competition binding, % of control; read-out: Percent Control (100 uM Levosimendan)
Method in brief: as §1

CDK4-cyclinD1 = molecular target: T3, CDK4-cyclinD1 (Homo sapiens, UniProt P11802); conditions: competition binding, % of control; read-out: Percent Control (100 uM Levosimendan)
T3 construct: cyclinD1
Method in brief: as §1

EPHB2 = EPHB2 (Homo sapiens, UniProt P29323); conditions: competition binding, % of control; read-out: Percent Control (100 uM Levosimendan)
Method in brief: as §1

DDR2 = DDR2 (Homo sapiens, UniProt Q16832); conditions: competition binding, % of control; read-out: Percent Control (100 uM Levosimendan)
Sequence of DDR2 (Q16832 whole entry): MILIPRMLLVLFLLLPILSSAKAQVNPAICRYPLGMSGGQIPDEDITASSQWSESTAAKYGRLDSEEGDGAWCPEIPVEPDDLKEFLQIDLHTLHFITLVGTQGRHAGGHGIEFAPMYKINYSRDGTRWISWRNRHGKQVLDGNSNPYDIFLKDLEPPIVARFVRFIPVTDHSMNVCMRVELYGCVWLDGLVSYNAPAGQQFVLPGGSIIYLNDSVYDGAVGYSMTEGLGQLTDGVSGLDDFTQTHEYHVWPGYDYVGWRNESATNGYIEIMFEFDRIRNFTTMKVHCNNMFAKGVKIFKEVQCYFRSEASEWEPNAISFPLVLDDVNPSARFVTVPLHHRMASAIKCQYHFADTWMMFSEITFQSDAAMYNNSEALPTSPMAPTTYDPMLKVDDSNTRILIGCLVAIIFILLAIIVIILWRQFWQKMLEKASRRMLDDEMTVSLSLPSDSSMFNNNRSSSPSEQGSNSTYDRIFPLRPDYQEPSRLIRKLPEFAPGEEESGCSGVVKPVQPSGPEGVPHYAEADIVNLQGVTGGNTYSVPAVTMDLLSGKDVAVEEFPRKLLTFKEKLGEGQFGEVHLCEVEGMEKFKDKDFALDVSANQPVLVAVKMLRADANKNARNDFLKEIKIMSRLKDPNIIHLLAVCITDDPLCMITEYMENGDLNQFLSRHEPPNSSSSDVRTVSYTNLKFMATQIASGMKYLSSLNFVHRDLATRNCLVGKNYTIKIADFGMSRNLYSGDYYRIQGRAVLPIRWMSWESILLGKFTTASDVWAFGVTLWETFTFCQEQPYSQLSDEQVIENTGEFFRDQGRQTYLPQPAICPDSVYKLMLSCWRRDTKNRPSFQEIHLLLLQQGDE
Method in brief: as §1

[2] = molecular target: T4, JAK1(JH1domain-catalytic) (Homo sapiens, UniProt P23458); conditions: competition binding, % of control; read-out: Percent Control (100 uM Levosimendan)
T4 construct: JH1domain-catalytic
Method in brief: as §1

SNRK = SNRK (Homo sapiens, UniProt Q9NRH2); conditions: competition binding, % of control; read-out: Percent Control (100 uM Levosimendan)
Method in brief: as §1

[3] = molecular target: T5, ABL1(T315I)-nonphosphorylated (Homo sapiens, UniProt P00519, T315I); conditions: competition binding, % of control; read-out: Percent Control (100 uM Levosimendan)
T5 construct: nonphosphorylated
Method in brief: as §1

EPHA6 = EPHA6 (Homo sapiens, UniProt Q9UF33); conditions: competition binding, % of control; read-out: Percent Control (100 uM Levosimendan)
Method in brief: as §1

FYN = FYN (Homo sapiens, UniProt P06241); conditions: competition binding, % of control
Sequence of FYN (P06241 whole entry): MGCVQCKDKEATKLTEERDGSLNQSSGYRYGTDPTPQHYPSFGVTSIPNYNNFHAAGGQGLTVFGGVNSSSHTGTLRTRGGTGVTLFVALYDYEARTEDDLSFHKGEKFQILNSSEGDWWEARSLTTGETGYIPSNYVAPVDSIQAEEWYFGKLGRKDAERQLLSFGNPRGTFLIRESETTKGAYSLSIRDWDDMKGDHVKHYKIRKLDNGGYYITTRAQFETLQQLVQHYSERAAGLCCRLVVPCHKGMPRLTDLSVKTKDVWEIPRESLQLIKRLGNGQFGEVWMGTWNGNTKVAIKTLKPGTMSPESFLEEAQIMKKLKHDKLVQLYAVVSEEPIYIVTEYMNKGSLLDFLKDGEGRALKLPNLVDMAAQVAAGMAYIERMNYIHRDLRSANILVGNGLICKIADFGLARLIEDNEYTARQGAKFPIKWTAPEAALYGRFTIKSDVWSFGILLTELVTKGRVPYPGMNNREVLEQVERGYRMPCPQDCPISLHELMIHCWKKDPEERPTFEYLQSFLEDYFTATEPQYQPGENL
Method in brief: as §1

RIPK5 = molecular target: T6, RIPK5 (Homo sapiens, UniProt Q6XUX3); conditions: competition binding, % of control; read-out: Percent Control (100 uM Levosimendan)
T6 construct: gene DSTYK
T6 sequence (Q6XUX3 whole entry): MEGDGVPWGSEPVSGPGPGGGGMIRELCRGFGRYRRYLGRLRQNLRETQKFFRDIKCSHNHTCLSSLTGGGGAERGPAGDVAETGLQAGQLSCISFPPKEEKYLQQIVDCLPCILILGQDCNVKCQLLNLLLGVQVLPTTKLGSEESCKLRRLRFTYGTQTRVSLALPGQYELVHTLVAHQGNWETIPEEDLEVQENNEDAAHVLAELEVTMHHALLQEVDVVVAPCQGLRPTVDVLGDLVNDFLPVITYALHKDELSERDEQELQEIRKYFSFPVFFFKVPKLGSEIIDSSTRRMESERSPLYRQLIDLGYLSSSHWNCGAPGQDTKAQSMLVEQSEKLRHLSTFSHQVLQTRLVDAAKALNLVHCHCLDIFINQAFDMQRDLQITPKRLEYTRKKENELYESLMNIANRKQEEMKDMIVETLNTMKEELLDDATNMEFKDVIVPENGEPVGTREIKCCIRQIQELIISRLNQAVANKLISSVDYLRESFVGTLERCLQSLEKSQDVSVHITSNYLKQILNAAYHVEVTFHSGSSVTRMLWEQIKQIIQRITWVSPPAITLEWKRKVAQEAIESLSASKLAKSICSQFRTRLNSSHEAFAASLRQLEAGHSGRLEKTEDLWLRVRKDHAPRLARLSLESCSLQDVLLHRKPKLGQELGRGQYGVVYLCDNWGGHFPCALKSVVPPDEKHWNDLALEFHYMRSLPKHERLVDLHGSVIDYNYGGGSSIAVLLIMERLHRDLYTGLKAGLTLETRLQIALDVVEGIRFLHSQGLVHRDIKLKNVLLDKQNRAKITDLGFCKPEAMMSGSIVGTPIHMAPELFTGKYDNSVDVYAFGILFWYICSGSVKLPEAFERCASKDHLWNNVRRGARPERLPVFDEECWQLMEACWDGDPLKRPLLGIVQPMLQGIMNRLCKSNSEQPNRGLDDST
Method in brief: as §1

[4] = molecular target: T7, ABL1(H396P)-phosphorylated (Homo sapiens, UniProt P00519, H396P); conditions: competition binding, % of control; read-out: Percent Control (100 uM Levosimendan)
T7 construct: phosphorylated
Method in brief: as §1

[5] = read-out: Percent Control (10 uM Levosimendan)
[6] = read-out: Percent Control (100 uM Levosimendan)

- remaining binding at 100 µM (TAOK2): 89%
- remaining binding at 100 µM (MARK3): 95%
- remaining binding at 100 µM (WEE2): 76%
- remaining binding at 100 µM (PLK2): 72%
- remaining binding at 10 µM (FGFR1; [5]): 98%
- remaining binding at 100 µM (FGFR1; [6]): 50%
- remaining binding at 10 µM [1, 5]: 100%
- remaining binding at 100 µM [1, 6]: 11%
- remaining binding at 100 µM (MEK4): 92%
- remaining binding at 100 µM (DYRK1B): 100%
- remaining binding at 100 µM (IRAK4): 80%
- remaining binding at 100 µM (CDK4-cyclinD1): 84%
- remaining binding at 100 µM (EPHB2): 77%
- remaining binding at 100 µM (DDR2): 79%
- remaining binding at 100 µM [2]: 100%
- remaining binding at 100 µM (SNRK): 100%
- remaining binding at 100 µM [3]: 100%
- remaining binding at 100 µM (EPHA6): 98%
- remaining binding at 10 µM (FYN; [5]): 96%
- remaining binding at 100 µM (FYN; [6]): 47%
- remaining binding at 100 µM (RIPK5): 60%
- remaining binding at 100 µM [4]: 68%
Structure (SMILES): C[C@@H]1CC(=O)NN=C1c1ccc(NN=C(C#N)C#N)cc1 [levosimendan]
